From ChEMBL document CHEMBL1155763, “The alkaloids of Artabotrys uncinatus” (J Nat Prod, 2001)
≈ marks a conversion by molar mass, not a printed value. Calls of active or inactive are those of the source. The rule behind the calls is not given here.

How the values were obtained:
HepG2 = experiment: Cytotoxicity against human HepG2 cells; assay type: functional, cell-based
[1] = Cytotoxicity against human HepG2(2.2.15) cells; assay type: functional, cell-based
[2] = target: Prothrombin (Homo sapiens) (UniProt P00734); experiment: Inhibition of thrombin-mediated conversion of fibrinogen to fibrin

Row | Compound | IC50 (HepG2) [µg/mL] | IC50 [1] [µg/mL] | Activity [2]
1 | COC1=C[C@@]23CCN(C)[C@@H](Cc4ccc(OC)c(O)c42)C3=CC1=O | 10.2 (≈ 31.2 µM) | 10.4 (≈ 31.8 µM) | inactive
2 | COc1c2c3c(c4c1OCO4)-c1ccccc1C[C@H]3N(C(C)=O)CC2 | 9.8 (≈ 29 µM) | 9.3 (≈ 27.6 µM) | inactive
3 | COc1c2c3c(c4c1OCO4)-c1ccccc1[C@@H](O)[C@H]3NCC2 [ARTABONATINE B] | 9.1 (≈ 29.2 µM) | 11 (≈ 35.3 µM) | inactive
4 | COc1ccc2c(c1)C(=O)c1nccc3cc4c(c-2c13)OCO4 [ATHEROSPERMIDINE] | 0.8 (≈ 2.62 µM) | 2.2 (≈ 7.21 µM) | inactive
5 | COC1=C[C@]23CCN(C)[C@H](Cc4cc(OC)c(O)cc42)C3=CC1=O [FLAVINANTINE] | 9.3 (≈ 28.4 µM) | 9.7 (≈ 29.6 µM) | inactive
6 | NC(=O)N1CCCC1=O [SQUAMOLONE] | 2.8 (≈ 21.9 µM) | 1.6 (≈ 12.5 µM) | inactive
7 | CC(C)=C1C=C(CN2CCCC2=O)C(=O)O1 [UNCININE] | 6.1 (≈ 27.6 µM) | 7.4 (≈ 33.4 µM) | inactive
